Measurements reported in US20260347372A1, “SMALL MOLECULE INHIBITORS OF KRAS G12D MUTANT” (MERCK SHARP & DOHME LLC, priority 2023, published 2026).

Tests used:
KRAS G12V = KRAS G12V (Homo sapiens, UniProt P01116, G12V); experiment: SOS-catalyzed nucleotide exchange assay, KRAS G12V (Procedure A); type: biochemical; details: GNE
In short: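 Biotinylated KRAS G12V was loaded with Bodipy-GDP alongside Terbium-streptavidin to form a TR-FRET complex, which was preincubated with compounds for 60 minutes in 384-well plates. Human SOS protein and unlabeled GTP were then added for 90 minutes, giving final concentrations of 1.25 nM KRAS-G12V, 160 nM SOS and 3 mM GTP. The 520/495 nm emission ratio was read on an Envision.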

HRAS = HRAS (Homo sapiens, UniProt P01112); experiment: SOS-catalyzed nucleotide exchange assay, HRAS (Procedure A); type: biochemical; details: GNE
From the text: (§1) Procedure for SOS-Catalyzed Nucleotide Exchange Assay for KRAS-WT, G12C/D/V, G13D, HRAS, and NRAS (Procedure A)
(§2) Recombinant KRAS-G12C protein used in this assay has an additional triple mutation (C51S/C80L/C118S). Whereas KRAS-WT, G12D/V, G13D, HRAS and NRAS are in context of their WT protein sequence background. Specifically, the SOS-catalyzed nucleotide exchange assay utilizes a preformed TR-FRET complex containing a specific biotinylated RAS protein (KRAS-WT, G12C/V/D, G13D, HRAS, NRAS; described above) with Bodipy-GDP, and Terbium-streptavidin. Compounds are preincubated with this complex for 60 minutes. Subsequently, recombinant human SOS protein and unlabeled GTP are added to initiate the exchange reaction. Small molecule inhibitors stabilize the Bodipy-GDP complex whereas the untreated protein rapidly exchanges Bodipy-GDP for unlabeled GTP resulting in reduced TR-FRET signal.
(§3) To assemble the preformed TR-FRET complexes, each biotinylated RAS protein is diluted to 2 μM in an EDTA Buffer (20 mM HEPES pH 7.5, 50 mM sodium chloride, 10 mM EDTA, and 0.01% Tween) and incubated at room temperature for one hour. This mixture is then further diluted to 90 nM in an Assay Buffer (20 mM HEPES pH 7.5, 150 mM sodium chloride, 10 mM magnesium chloride, and 0.005% Tween) containing 15 nM of Terbium-Streptavidin (Invitrogen, catalog #PV3577) and 900 nM of Bodipy-GDP (Invitrogen, catalog #G22360) and incubated at room temperature for six hours. It should be noted that this preformed TR-FRET complex for each of the RAS protein were made ahead of time, aliquoted and stored at −80° C. until the day of the experiment.
(§4) Each test compound (10 mM stock in DMSO) is diluted in DMSO to make a final-10-point, 3-fold dilution and is acoustically dispensed into a 384-well assay plate (Corning, catalog #3820) using an Echo 550 (Labcyte). Each well of the assay plate receives 3 μL of a specific 3×RAS preformed TR-FRET complex and 3 μL of Assay Buffer and is incubated at room temperature for 60 minutes (preincubation time). Each well then receives 3 μL of 3× recombinant human SOS protein and GTP (Sigma, G8877) in Assay Buffer and is incubated at room temperature for 30 minutes (G13D), 60 minutes (KRAS WT/G12C/D, H/NRAS) or 90 minutes for G12V. The final reaction in each well of 9 μL consists of 3 mM GTP, specific Ras and SOS proteins in the following concentrations: KRAS-G12C/SOS=3 nM/40 nM, KRAS-WT and G12D/SOS=1 nM/40 nM, KRAS-G12V/SOS=1.25 nM/160 nM, KRAS-G13D/SOS=1.25 nM/0 nM, HRAS and NRAS=1.25 nM/40 nM.
(§5) The time-resolved fluorescence resonance energy transfer (TR-FRET) signal is measured on an Envision (PerkinElmer) plate reader: Excitation filter=340 nm; emission1=495 nm; emission2=520 nm; dichroic mirror=D400/D505; delay time=[…]. The signal of each well is determined as the ratio of the emission at 520 nm to that at 495 nm. Percent effect of each well is determined after normalization to control wells containing DMSO (no effect) or a saturating concentration of inhibitor (max effect). The apparent effect as a function of compound concentration is fit to a four-parameter logistic equation.
(§6) For Example No. 14, nucleotide exchange assays for KRAS G12D, WT, G12C, and G12V were performed according to Procedure B. All the other compounds were tested according to Procedure A.

KRAS WT = KRAS WT (Homo sapiens, UniProt P01116); experiment: SOS-catalyzed nucleotide exchange assay, KRAS WT (Procedure A); type: biochemical; details: GNE
In short: (§7)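 Preformed TR-FRET complex of biotinylated KRAS (G12C carries C51S/C80L/C118S; others native sequence), Bodipy-GDP and Tb-streptavidin preincubated with compound 60 min at room temperature. Exchange started with human SOS plus 3 mM GTP for 60 min (G13D 30 min). Final RAS/SOS: G12C 3/40 nM; WT, G12D 1/40 nM; G13D 1.25/0 nM. 520/495 nm ratio normalised, fitted to four-parameter logistic.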

KRAS G13D = KRAS G13D (Homo sapiens, UniProt P01116, G13D); experiment: SOS-catalyzed nucleotide exchange assay, KRAS G13D (Procedure A); type: biochemical; details: GNE
From the text: as §1, §2, §3, §4, §5, §6

NRAS = NRAS (Homo sapiens, UniProt P01111); experiment: SOS-catalyzed nucleotide exchange assay, NRAS (Procedure A); type: biochemical; details: GNE
From the text: as §1, §2, §3, §4, §5, §6

KRAS G12D = KRAS G12D (Homo sapiens, UniProt P01116, G12D); experiment: SOS-catalyzed nucleotide exchange assay, KRAS G12D (Procedure A); type: biochemical; details: guanine nucleotide exchange (GNE)
In short: as §7

AsPC-1 cells = target: T1, AsPC-1 cells (Homo sapiens, UniProt P01116, G12D); experiment: Cellular phospho-ERK assay, AsPC-1 cells (KRAS G12D); type: cell-based; details: 2 hours, read-out: AsPC1 pERK IC50
T1 construct: p-ERK/total ERK AlphaSureFire read-out
In short: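 PANC08.13 or AsPC-1 cells (homozygous KRAS G12D) were seeded overnight, then treated for 2 h at 37 °C with a 10-point 1:3 titration from 30 μM. Lysates were assayed by AlphaLISA SureFire for p-ERK and total ERK. IC50 came from a 4-parameter fit of the p-ERK/total ERK ratio.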

KRAS G12C = KRAS G12C (Homo sapiens, UniProt P01116, C118S/C51S/C80L/G12C); experiment: SOS-catalyzed nucleotide exchange assay, KRAS G12C (Procedure A); type: biochemical; details: GNE
From the text: as §1, §2, §3, §4, §5, §6

Sequence of KRAS WT (P01116 with tags, fused parts or gaps isoform P01116-2): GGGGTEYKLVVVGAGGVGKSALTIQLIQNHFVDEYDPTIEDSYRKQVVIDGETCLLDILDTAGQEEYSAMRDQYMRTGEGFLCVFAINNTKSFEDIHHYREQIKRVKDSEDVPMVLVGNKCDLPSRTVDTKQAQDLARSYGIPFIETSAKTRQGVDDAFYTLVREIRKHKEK
Sequence of KRAS G13D (P01116 with tags, fused parts or gaps isoform P01116-2 G13D): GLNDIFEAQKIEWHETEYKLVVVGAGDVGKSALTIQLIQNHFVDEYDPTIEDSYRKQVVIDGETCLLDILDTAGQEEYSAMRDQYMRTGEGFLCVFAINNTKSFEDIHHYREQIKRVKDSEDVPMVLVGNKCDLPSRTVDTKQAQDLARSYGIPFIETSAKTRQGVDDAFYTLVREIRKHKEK
Sequence of KRAS G12D (P01116 with tags, fused parts or gaps isoform P01116-2 G12D): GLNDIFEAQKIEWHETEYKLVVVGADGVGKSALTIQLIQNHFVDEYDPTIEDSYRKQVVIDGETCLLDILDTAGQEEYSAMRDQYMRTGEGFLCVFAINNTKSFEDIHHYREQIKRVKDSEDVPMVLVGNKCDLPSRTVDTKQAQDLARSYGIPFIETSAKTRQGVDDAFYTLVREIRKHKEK
Sequence of NRAS (P01111 with tags, fused parts or gaps): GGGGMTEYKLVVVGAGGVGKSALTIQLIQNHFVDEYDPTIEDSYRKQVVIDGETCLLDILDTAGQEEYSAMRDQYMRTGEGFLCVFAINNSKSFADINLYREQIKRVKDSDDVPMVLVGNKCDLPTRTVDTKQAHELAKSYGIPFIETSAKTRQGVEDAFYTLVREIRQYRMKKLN
Sequence of KRAS G12V (P01116 with tags, fused parts or gaps isoform P01116-2 G12V): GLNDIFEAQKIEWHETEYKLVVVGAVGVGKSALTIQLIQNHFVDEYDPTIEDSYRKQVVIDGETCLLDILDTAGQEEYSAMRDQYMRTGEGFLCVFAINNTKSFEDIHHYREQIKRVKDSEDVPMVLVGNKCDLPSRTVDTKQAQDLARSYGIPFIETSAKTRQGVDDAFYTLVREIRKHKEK
T1 sequence (P01116 1-188 isoform P01116-2 G12D): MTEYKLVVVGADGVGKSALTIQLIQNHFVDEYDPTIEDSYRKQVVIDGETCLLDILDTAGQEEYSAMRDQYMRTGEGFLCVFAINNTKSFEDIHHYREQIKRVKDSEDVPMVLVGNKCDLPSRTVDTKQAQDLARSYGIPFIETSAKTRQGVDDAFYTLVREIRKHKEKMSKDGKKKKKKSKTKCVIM
Sequence of HRAS (P01112 with tags, fused parts or gaps): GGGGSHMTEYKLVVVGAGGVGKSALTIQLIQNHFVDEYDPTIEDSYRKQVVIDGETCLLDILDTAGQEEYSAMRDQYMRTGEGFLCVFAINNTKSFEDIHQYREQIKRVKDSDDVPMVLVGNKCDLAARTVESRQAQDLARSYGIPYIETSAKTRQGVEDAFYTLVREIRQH
Sequence of KRAS G12C (P01116 with tags, fused parts or gaps isoform P01116-2 G12C/C51S/C80L/C118S): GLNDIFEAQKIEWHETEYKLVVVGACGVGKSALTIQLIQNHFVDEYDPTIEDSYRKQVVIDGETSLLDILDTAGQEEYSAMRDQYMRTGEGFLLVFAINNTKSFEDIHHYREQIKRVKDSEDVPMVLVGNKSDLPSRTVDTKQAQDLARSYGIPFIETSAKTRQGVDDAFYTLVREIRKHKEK

| SMILES | IC50 (KRAS G12V) [µM] | IC50 (HRAS) [µM] | IC50 (KRAS WT) [µM] | IC50 (KRAS G13D) [µM] | IC50 (NRAS) [µM] | IC50 (KRAS G12D) [µM] | IC50 (AsPC-1 cells) [µM] | IC50 (KRAS G12C) [µM] |
| --- | --- | --- | --- | --- | --- | --- | --- | --- |
| Cc1cc2[nH]ncc2c(-c2nccc3c2sc2nc(OCC4(C#N)CCOCC4)nc(N4C[C@H]5CC[C@@H](C4)N5)c23)c1C(F)(F)F [Ex-38, 4-(((4-((1R,5S)-3,8-diazabicyclo[3.2.1]octan-3-yl)-8-(6-methyl-5-(trifluoromethyl)-1H-indazol-4-yl)pyrido[4′,3′:4,5]thieno[2,3-d]pyrimidin-2-yl)oxy)methyl)tetrahydro-2H-pyran-4-carbonitrile] | > 11.1 | > 11.1 | > 11.1 | 3.55 | > 11.1 | 3.79 | > 30 | > 11.1 |
| C#Cc1cccc2cc3[nH]ncc3c(-c3nccc4c3sc3nc(OC[C@@]56CCCN5C[C@H](F)C6)nc(N5C[C@H]6CC[C@@H](C5)N6)c34)c12 [Ex-55, 4-((1R,5S)-3,8-diazabicyclo[3.2.1]octan-3-yl)-8-(5-ethynyl-1H-benzo[f]indazol-4-yl)-2-(((2R,7aS)-2-fluorotetrahydro-1H-pyrrolizin-7a(5H)-yl)methoxy)pyrido[4′,3′:4,5]thieno[2,3-d]pyrimidine] | 0.105 | > 11.1 | 0.148 | 0.0425 | > 11.1 | 0.00131 | 0.025 | 0.0739 |
| Fc1ccc2cc3[nH]ncc3c(-c3nccc4c3sc3nc(OC[C@@]56CCCN5C[C@H](F)C6)nc(N5C[C@H]6CC[C@@H](C5)N6)c34)c2c1Cl [Ex-59, 4-((1R,5S)-3,8-diazabicyclo[3.2.1]octan-3-yl)-8-(5-chloro-6-fluoro-1H-benzo[f]indazol-4-yl)-2-(((2R,7aS)-2-fluorotetrahydro-1H-pyrrolizin-7a(5H)-yl)methoxy)pyrido[4′,3′:4,5]thi-eno[2,3-d]pyrimidine] | 1.37 | > 11.1 | 1.65 | 0.265 | > 11.1 | 0.00925 | 0.217 | 0.182 |
| Cc1cc2[nH]ncc2c(-c2nccc3c2sc2nc(OC[C@@]45CCCN4C[C@H](F)C5)nc(N4CC5COCC(C4)N5)c23)c1C(F)(F)F [Ex-65, 7-(2-(((2R,7aS)-2-fluorotetrahydro-1H-pyrrolizin-7a(5H)-yl)methoxy)-8-(6-methyl-5-(trifluoromethyl)-1H-indazol-4-yl)pyrido[4′,3′:4,5]thieno[2,3-d]pyrimidin-4-yl)-3-oxa-7,9-diazabicyclo[3.3.1]nonane] | > 11.1 | > 11.1 | 8.79 | 2.74 | > 11.1 | 0.128 | 1.7 | 1.96 |

Results, then the molecule that gave them:

| IC50 (KRAS G12V) [µM] | IC50 (HRAS) [µM] | IC50 (KRAS WT) [µM] | IC50 (KRAS G13D) [µM] | IC50 (NRAS) [µM] | IC50 (KRAS G12D) [µM] | IC50 (AsPC-1 cells) [µM] | IC50 (KRAS G12C) [µM] | SMILES |
| --- | --- | --- | --- | --- | --- | --- | --- | --- |
| > 11.1 | > 11.1 | > 11.1 | > 11.1 | > 11.1 | 4.12 | 28.4 | > 11.1 | Cc1cc2[nH]ncc2c(-c2nccc3c2sc2nc(OCC4CCS(=O)(=O)CC4)nc(N4C[C@H]5CC[C@@H](C4)N5)c23)c1C(F)(F)F [Ex-36, 4-(((4-((1R,5S)-3,8-diazabicyclo[3.2.1]octan-3-yl)-8-(6-methy1-5-(trifluoromethyl)-1H-indazol-4-yl)pyrido[4′,3′:4,5]thieno[2,3-d]pyrimidin-2-yl)oxy)methyl)tetrahydro-2H-thiopyran 1,1-dioxide] |
| > 11.1 | > 11.1 | > 11.1 | > 11.1 | > 11.1 | 1.28 | > 30 | > 11.1 | Cc1cc2[nH]ncc2c(-c2nccc3c2sc2nc(OCC4(C)CNC(=O)C4)nc(N4C[C@H]5CC[C@@H](C4)N5)c23)c1C(F)(F)F (stereo partly drawn) [Ex-37, 4-(((4-((1R,5S)-3,8-diazabicyclo[3.2.1]octan-3-yl)-8-(6-methy1-5-(trifluoromethyl)-1H-indazol-4-yl)pyrido[4′,3′:4,5]thieno[2,3-d]pyrimidin-2-yl)oxy)methyl)-4-methylpyrrolidin-2-one] |
| > 11.1 | > 11.1 | > 11.1 | > 11.1 | > 11.1 | 2.42 | 12.8 | > 11.1 | Cc1cc2[nH]ncc2c(-c2nccc3c2sc2nc(OCC4(C)CS(=O)(=O)C4)nc(N4C[C@H]5CC[C@@H](C4)N5)c23)c1C(F)(F)F [Ex-39, 3-(((4-((1R,5S)-3,8-diazabicyclo[3.2.1]octan-3-yl)-8-(6-methyl-5-(trifluoromethyl)-1H-indazol-4-yl)pyrido[4′,3′:4,5]thieno[2,3-d]pyrimidin-2-yl)oxy)methyl)-3-methylthietane 1,1-dioxide] |
| 0.0627 | > 11.1 | 0.0807 | 0.0148 | > 11.1 | 0.00192 | 0.0314 | 0.0227 | C#Cc1csc2cc3[nH]ncc3c(-c3nccc4c3sc3nc(OC[C@@]56CCCN5C[C@H](F)C6)nc(N5C[C@H]6CC[C@@H](C5)N6)c34)c12 [Ex-54, 4-((1R,5S)-3,8-diazabicyclo[3.2.1]octan-3-yl)-8-(5-ethynyl-1H-thieno[3,2-f]indazol-4-yl)-2-(((2R,7aS)-2-fluorotetrahydro-1H-pyrrolizin-7a(5H)-yl)methoxy)pyrido[4′,3′:4,5]thieno[2,3-d]pyrimidine] |
| 0.672 | > 11.1 | 0.856 | 0.323 | > 11.1 | 0.0131 | 0.699 | 0.265 | Cc1cc2[nH]ncc2c(-c2nccc3c2sc2nc(OC[C@@]45CCCN4C[C@H](F)C5)nc(N4CC5CC(C4)N5)c23)c1C(F)(F)F [Ex-67, 4-(3,6-diazabicyclo[3.1.1]heptan-3-yl)-2-(((2R,7aS)-2-fluorotetrahydro-1H-pyrrolizin-7a(5H)-yl)methoxy)-8-(6-methyl-5-(trifluoromethyl)-1H-indazol-4-yl)pyrido[4′,3′:4,5]thieno[2,3-d]pyrimidine] |
